Experimental findings from PubChem BioAssay (NCI) are described below.

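Exposure lasted 48 hours, with cells grown in 96-well plates and compounds tested at five concentrations. GI50: concentration for 50% inhibition of growth. TGI: total growth inhibition.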

What all share (assay): inhibition of tumour cell growth, NCI panel, 48 h
For assay [1], the system named is CAKI-1 renal.
Assay [2] has as its system MALME-3M melanoma.
Assay [3] relates to MCF7 breast.
The test system of assay [4] is NCI-H460 lung.
The subject of assay [5] is PC-3 prostate.
The test system of assay [6] is RXF 393 renal.
Assay [7] concerns SF-268 CNS.
In assay [8] the test system is TK-10 renal.

As to `NS(=O)(=O)c1ccc(N=Nc2c(O)[nH]c3ccc(C(=O)NCc4ccncc4)cc23)cc1`, the GI50 in assay [1], in assay [2], in assay [3], in assay [4], in assay [5] and in assay [6] was greater than 25 µM in each case. Besides, the GI50 in assay [7] and in assay [8] was greater than 25 µM each time. For the same compound, the TGI in assay [1], in assay [2], in assay [3], in assay [4], in assay [5] and in assay [6] was greater than 25 µM each time. For the same compound, the TGI in assay [7] and in assay [8] was greater than 25 µM each time.

With `COc1cc2ncnc(-n3ncc4cc(NC(=O)Nc5ccc(Cl)c(Cl)c5)ccc43)c2cc1OC`, the GI50 in assay [1] was 2.3 µM; in assay [2] it was 1.72 µM; in assay [3], 1.85 µM; in assay [4], 2.08 µM; in assay [5] it was 1.55 µM; in assay [6] it was 1.53 µM. Moreover, the values for the GI50 in assay [7] and in assay [8] were 2.44 µM and 2.38 µM, respectively. The TGI is 5.94 µM in assay [1]; 3.89 µM in assay [2]; 4.56 µM in assay [3]; 4.57 µM in assay [4]; 3.24 µM in assay [5]; 3.29 µM in assay [6]. Also, the TGI in assay [7] turned out to be 7.32 µM; in assay [8] it was 6.45 µM.

Consider `O=[N+]([O-])c1cccc(-c2nc(-c3ccccc3)c(-c3ccccc3)[nH]2)c1`, for which the TGI in assay [1], in assay [2], in assay [3], in assay [4], in assay [5] and in assay [6] was greater than 100 µM in each case. Moreover, the TGI in assay [7] and in assay [8] was greater than 100 µM each time.

With `CN1CCN(Cc2ccc(NC(=O)c3cncc(C#Cc4cnc(N)cc4C#N)c3)cc2C(F)(F)F)CC1`, the GI50 was 3.78 µM in assay [1]; 0.264 µM in assay [2]; 3.64 µM in assay [3]; 2.66 µM in assay [4]; 3.5 µM in assay [5]; 1.45 µM in assay [6]. For the same compound, the GI50 in assay [7] was 3.7 µM; in assay [8] it was 4.92 µM. The TGI in assay [1] is 16.7 µM; in assay [2], 0.943 µM; in assay [3] it was 16.2 µM; in assay [4], 12.7 µM; in assay [5], 19 µM; in assay [6], 5.55 µM. Besides, the TGI in assay [7] is 19.2 µM; in assay [8], 17.5 µM.

Regarding `O=S1(=O)N(Cc2ccccc2)[C@@H](Cc2ccccc2)[C@H](O)[C@H](O)[C@H](Cc2ccccc2)N1Cc1ccccc1`, the GI50 was 3.65 µM in assay [1]; 2.75 µM in assay [2]; 4.77 µM in assay [3]; 3.41 µM in assay [4]; 3.48 µM in assay [5]; 2.6 µM in assay [6]. The GI50 in assay [7] was 3.44 µM; in assay [8], 3.77 µM. For the same compound, the TGI in assay [1] is 7.33 µM; in assay [2] it was 6.37 µM; in assay [3], 13.6 µM; in assay [4], 7.91 µM; in assay [5], 10.4 µM; in assay [6], 5.24 µM. Besides, the TGI stood at 8.03 µM in assay [7] and 8.38 µM in assay [8].

Turning to `COc1ccc(NC(=O)/C=C(C)/C=C/C=C(C)/C=C/C2=C(C)CCCC2(C)C)cc1`, the GI50 is 3.28 µM in assay [1]; 38.9 µM in assay [2]; 3.28 µM in assay [3]; 12.8 µM in assay [4]; 3.18 µM in assay [5]; 12.8 µM in assay [6]. In addition, the GI50 in assay [7] was 4.95 µM; in assay [8], 37.5 µM. Besides, the TGI in assay [1] stood at 14.4 µM; in assay [2], 65.4 µM; in assay [3] it was 12.4 µM; in assay [4], 26.9 µM; in assay [5], 11.8 µM; in assay [6], 26.2 µM. Further, the TGI was 17.3 µM in assay [7] and 58.2 µM in assay [8].

On to `Oc1c(Cl)cc(Cl)c2ccc(Cn3cc(-c4cc(C(F)(F)F)cc(C(F)(F)F)c4)nn3)nc12`, for which the GI50 in assay [1] was 1.16 µM; in assay [2], 1.47 µM; in assay [3], 0.526 µM; in assay [4], 18.2 µM; in assay [5] it was 2.81 µM; in assay [6] it was 0.555 µM. Further, the GI50 in assay [7] is 4.22 µM; in assay [8], 1.82 µM. The TGI in assay [1] was 2.53 µM; in assay [2], 3.21 µM; in assay [3] it was 2.1 µM; in assay [4], 35.2 µM; in assay [5], 10.3 µM; in assay [6], 1.97 µM. Besides, the TGI in assay [7] came out at 17.5 µM; in assay [8], 3.83 µM.

For the compound `Cc1ccc2nc(-c3ccc(OCC(=O)N=Nc4c(O)[nH]c5ccccc45)cc3)[nH]c2c1`, the GI50 was 2.8 µM in assay [1]; 2.1 µM in assay [2]; 1.85 µM in assay [3]; 2.01 µM in assay [4]; 1.74 µM in assay [5]; 7.94 µM in assay [6]. For the same compound, the figures for the GI50 in assay [7] and in assay [8] were 3.54 µM and 12.8 µM, respectively. Besides, the TGI came to 10.2 µM in assay [1]; 4.6 µM in assay [2]; 3.96 µM in assay [3]; 4.06 µM in assay [4]; 3.65 µM in assay [5]; 24.4 µM in assay [6]. For the same compound, the TGI in assay [7] was determined as 14.4 µM; in assay [8], 30.8 µM.

Take `CCCCCCCC(=O)OCCCC1[C@]2(C)CC[C@@]3(C)C([C@H](C)CCC=C(C)C)CC[C@]3(C)C2CC[C@]12OC2(C)C` (stereo not given in full): the GI50 was 23.8 µM in assay [1]; greater than 100 µM in assay [2]; 34.1 µM in assay [3]; 26.2 µM in assay [4]; 30.2 µM in assay [5]; 21.3 µM in assay [6]. For the same compound, the GI50 in assay [7] is 27.2 µM; in assay [8], 30.6 µM. Besides, the TGI is 48.9 µM in assay [1]; greater than 100 µM in assay [2]; greater than 100 µM in assay [3]; 71 µM in assay [4]; greater than 100 µM in assay [5]; 49.3 µM in assay [6]. Besides, the TGI in assay [7] is 81.8 µM; in assay [8] it was greater than 100 µM.

For `C=C/C(C)=C/C[C@]1(C)[C@H](C)[C@@H](OC(=O)CCC)[C@H](O)[C@@]23C(=C[C@H](OC)C[C@@H]12)[C@@H](OC(=O)CCC)O[C@H]3OC(C)=O`, the GI50 in assay [1] is 1.32 µM; in assay [2], 0.313 µM; in assay [3], 1.16 µM; in assay [4] it was 1.74 µM; in assay [5], 0.511 µM; in assay [6], 0.262 µM. Moreover, the figures for the GI50 in assay [7] and in assay [8] were 1.58 µM and 0.181 µM, respectively. Besides, the TGI came out at 2.64 µM in assay [1]; 1.03 µM in assay [2]; 2.91 µM in assay [3]; 3.52 µM in assay [4]; 2.31 µM in assay [5]; 0.696 µM in assay [6]. In addition, the TGI in assay [7] amounted to 3.25 µM; in assay [8], 0.411 µM.

Take `CN(C)c1ccc(/C=C2\N=C(c3ccccc3)N(c3cc(C(F)(F)F)ccc3Cl)C2=O)cc1`: the GI50 in assay [1] was greater than 100 µM; in assay [2] it was greater than 100 µM; in assay [3], 99.8 µM; in assay [4] it was greater than 100 µM; in assay [5], greater than 100 µM; in assay [6] it was greater than 100 µM. Also, the GI50 in assay [7] and in assay [8] was greater than 100 µM throughout. Further, the TGI in assay [1], in assay [2], in assay [3], in assay [4], in assay [5] and in assay [6] was greater than 100 µM throughout. The TGI in assay [7] and in assay [8] was greater than 100 µM in each case.

For the compound `C#CCNC(=S)N/N=C(\C)c1ccccn1`, the GI50 in assay [1] was 0.396 µM; in assay [2], 1.51 µM; in assay [3], 0.0792 µM; in assay [4], 0.949 µM; in assay [5] it was 0.393 µM; in assay [6], 0.641 µM. Also, the values for the GI50 in assay [7] and in assay [8] were 0.517 µM and 3.07 µM, respectively. Moreover, the TGI in assay [1] is greater than 33.8 µM; in assay [2], greater than 100 µM; in assay [3], greater than 100 µM; in assay [4] it was 5.22 µM; in assay [5], greater than 100 µM; in assay [6] it was 4.9 µM. Also, the TGI in assay [7] and in assay [8] was greater than 100 µM in each case.

Turning to `Cn1cccc1-c1cc(-c2ccccc2)[nH]c(=O)c1C#N`, the GI50 in assay [1], in assay [2], in assay [3], in assay [4], in assay [5] and in assay [6] was greater than 100 µM each time. Moreover, the GI50 in assay [7] and in assay [8] was greater than 100 µM throughout. Besides, the TGI in assay [1], in assay [2], in assay [3], in assay [4], in assay [5] and in assay [6] was greater than 100 µM in each case. The TGI in assay [7] and in assay [8] was greater than 100 µM in each case.
